≈ marks a conversion by molar mass, not a printed value. Structures can show the parent of a compound that is named as a salt. Where two headings read alike, the source gives them in different places.
Key:
Assay in all cases: Antibacterial spectrum (Minimum Inhibitory Concentration)
Assay type in all cases: cell-based
[1] = tested on: Staphylococcus aureus 209P; conditions: read-out: Minimum Inhibitory Concentration
Text: (§1) The antibacterial tests were done according to the method authorized by the Chemotherapeutic Society of Japan.

[2] = tested on: Salmonella enteritidies IID 604
Text: as §1

[3] = tested on: Proteus vulgaris IFO 3167
Text: as §1

Ps. aeruginosa IID 1130 = conditions: Pseudomonas aeruginosa
Text: as §1

Ser. marcescens IID 620 = conditions: Serratia marcescens
Text: as §1

[4] = tested on: Serratia marcescens IID 618
Text: as §1

Ser. marcescens IID 619 = conditions: Serratia marcescens
Text: as §1

[5] = tested on: Escherichia coli NIHJ JC-2
Text: as §1

[6] = tested on: Pseudomonas aeruginosa V-1
Text: as §1

Ps. aeruginosa IID 1210 = conditions: Pseudomonas aeruginosa
Text: as §1

[7] = tested on: Klebsiella pneumoniae IFO 3512
Text: as §1

Pr. vulgaris XK Denken = conditions: Proteus vulgaris, read-out: Minimum Inhibitory Concentration
Text: as §1

Ps. aeruginosa IFO 12689 = conditions: Pseudomonas aeruginosa
Text: as §1

[8] = tested on: Bacillus subtilis PCI 219
Text: as §1

E. coli ATCC 10536 = conditions: Escherichia coli
Text: as §1

Sta. aureus ATCC 14775 = conditions: Staphylococcus aureus
Text: as §1

Shigella sonnei IID 969 = conditions: IID969; Shigella sonnei IID 969, Gram -
Text: as §1

[9] = Staphylococcus aureus 209P, Gram +
[10] = Salmonella, IID604, read-out: Minimum Inhibitory Concentration
[11] = IFO3167, Proteus vulgaris IFO 3167, Gram -, read-out: Minimum Inhibitory Concentration
[12] = IID1130, Ps. aeruginosa IID 1130, Gram -, read-out: Minimum Inhibitory Concentration
[13] = IID620, Ser. marcescens IID 620, Gram -, read-out: Minimum Inhibitory Concentration
[14] = IID618, Serratia marcescens IID 618, Gram -, read-out: Minimum Inhibitory Concentration
[15] = IID619, Ser. marcescens IID 619, Gram -, read-out: Minimum Inhibitory Concentration
[16] = NIHJJC2, Escherichia coli NIHJ JC-2, Gram -, read-out: Minimum Inhibitory Concentration
[17] = V1, Pseudomonas aeruginosa V-1, Gram -, read-out: Minimum Inhibitory Concentration
[18] = IID1210, Ps. aeruginosa IID 1210, Gram -, read-out: Minimum Inhibitory Concentration
[19] = IFO3512, Klebsiella pneumoniae IFO 3512, Gram -, read-out: Minimum Inhibitory Concentration
[20] = IFO12689, read-out: Minimum Inhibitory Concentration
[21] = PCI219, Bacillus subtilis PCI 219, Gram +, read-out: Minimum Inhibitory Concentration
[22] = ATCC10536, E. coli ATCC 10536, Gram -, read-out: Minimum Inhibitory Concentration
[23] = ATCC14775, Sta. aureus ATCC 14775, Gram +, read-out: Minimum Inhibitory Concentration
[24] = IID604, Salmonella enteritidies IID 604, Gram -, read-out: Minimum Inhibitory Concentration
[25] = Proteus vulgaris, IFO3167, read-out: Minimum Inhibitory Concentration
[26] = IFO12689, Ps. aeruginosa IFO 12689, Gram -, read-out: Minimum Inhibitory Concentration
[27] = ATCC10536, read-out: Minimum Inhibitory Concentration
[28] = Klebsiella pneumoniae, IFO3512, read-out: Minimum Inhibitory Concentration
[29] = Bacillus subtilis, PCI219, read-out: Minimum Inhibitory Concentration

Compound	MIC [1, 9] [µg/mL]	MIC [3, 11] [µg/mL]	MIC (Ps. aeruginosa IID 1130; [12]) [µg/mL]	MIC (Ser. marcescens IID 620; [13]) [µg/mL]	MIC [4, 14] [µg/mL]	MIC (Ser. marcescens IID 619; [15]) [µg/mL]	MIC [5, 16] [µg/mL]	MIC [6, 17] [µg/mL]	MIC (Ps. aeruginosa IID 1210; [18]) [µg/mL]	MIC [7, 19] [µg/mL]	MIC (Pr. vulgaris XK Denken; Pr. vulgaris XK Denken, Gram -) [µg/mL]	MIC [8, 21] [µg/mL]	MIC (E. coli ATCC 10536; [22]) [µg/mL]	MIC (Sta. aureus ATCC 14775; [23]) [µg/mL]	MIC [2, 24] [µg/mL]	MIC [3, 25] [µg/mL]	MIC (Shigella sonnei IID 969) [µg/mL]	MIC (Pr. vulgaris XK Denken) [µg/mL]	MIC (Ps. aeruginosa IFO 12689; [26]) [µg/mL]	MIC (E. coli ATCC 10536; [27]) [µg/mL]	other results
CCn1cc(C(=O)O)c(=O)c2cc(F)c(N3CCNCC3)nc21.Cl [Example 1, 1-ethyl-1,4-dihydro-6-fluoro-7-(1-piperazinyl)-4-oxo-1,8-naphthyridine-3-carboxylic acid hydrochloride]	0.78	0.2	1.56	0.39	0.39	0.78	0.2	3.13	6.25	0.2	0.39	0.39	0.39	6.25	–	–	–	–	–	–	MIC [2, 10]: 0.39 µg/mL; MIC (Ps. aeruginosa IFO 12689; [20]): 6.25 µg/mL
C=Cn1cc(C(=O)O)c(=O)c2cc(F)c(N3CCN(C)CC3)cc21.Cl [Example 4, 1-vinyl-6-fluoro-7-(4-methyl-1-piperazinyl)-4-oxo-1,4-dihydroquinoline-3-carboxylic acid hydrochloride]	1.56	–	6.25	0.39	0.39	0.78	< 0.1	3.13	3.13	< 0.1	–	0.39	–	3.13	0.78	0.2	0.2	0.2	3.13	0.2	–
Cl.O=C(O)c1cn(CCF)c2cc(N3CCNCC3)c(F)cc2c1=O [Example 5, 1-(2-fluoroethyl)-6-fluoro-7-(1-piperazinyl)-4-oxo-1,4-dihydroquinoline-3-carboxylic acid hydrochloride]	–	–	–	–	–	–	–	–	–	–	–	–	–	–	–	0.2	< 0.1	0.39	–	0.2	MIC ([1]; Staphylococcus aureus, 209P): 1.56 µg/mL; MIC [2, 10]: 0.78 µg/mL; MIC (Ps. aeruginosa IID 1130; IID1130, read-out: Minimum Inhibitory Concentration): 1.56 µg/mL; MIC (Ser. marcescens IID 620; IID620, read-out: Minimum Inhibitory Concentration): 0.2 µg/mL; MIC ([4]; Serratia marcescens, IID618, read-out: Minimum Inhibitory Concentration): 0.2 µg/mL; MIC (Ser. marcescens IID 619; IID619, read-out: Minimum Inhibitory Concentration): 0.39 µg/mL; MIC ([5]; Escherichia coli, NIHJJC2, read-out: Minimum Inhibitory Concentration): < 0.1 µg/mL; MIC ([6]; Pseudomonas aeruginosa, V1, read-out: Minimum Inhibitory Concentration): 0.78 µg/mL; MIC (Ps. aeruginosa IID 1210; IID1210, read-out: Minimum Inhibitory Concentration): 3.13 µg/mL; MIC [7, 28]: < 0.1 µg/mL; MIC (Ps. aeruginosa IFO 12689; [20]): 3.13 µg/mL; MIC [8, 29]: 0.2 µg/mL; MIC (Sta. aureus ATCC 14775; ATCC14775, read-out: Minimum Inhibitory Concentration): 6.25 µg/mL
CN1CCN(c2cc3c(cc2F)c(=O)c(C(=O)O)cn3CCF)CC1 [Example 6, 1-(2-fluoroethyl)-6-fluoro-7-(4-methyl-1-piperazinyl)-4-oxo-1,4-dihydroquinoline-3-carboxylic acid]	0.39 (≈ 1.11 µM)	–	6.25 (≈ 17.8 µM)	0.2 (≈ 0.569 µM)	0.2 (≈ 0.569 µM)	0.2 (≈ 0.569 µM)	< 0.1	3.13 (≈ 8.91 µM)	6.25 (≈ 17.8 µM)	–	–	–	0.2 (≈ 0.569 µM)	0.78 (≈ 2.22 µM)	0.78 (≈ 2.22 µM)	< 0.1	< 0.1	< 0.1	3.13 (≈ 8.91 µM)	–	MIC [7, 28]: < 0.1 µg/mL; MIC [8, 29]: < 0.1 µg/mL
CCn1cc(C(=O)O)c(=O)c2cc(F)c(N3CCNC(=O)C3)cc21 [Example 8, 1-ethyl-1,4-dihydro-6-fluoro-7-(3-oxo-1-piperazinyl)-4-oxoquinoline-3-carboxylic acid]	3.13 (≈ 9.39 µM)	0.78 (≈ 2.34 µM)	25 (≈ 75 µM)	6.25 (≈ 18.8 µM)	6.25 (≈ 18.8 µM)	12.5 (≈ 37.5 µM)	0.39 (≈ 1.17 µM)	12.5 (≈ 37.5 µM)	> 25	0.1 (≈ 0.3 µM)	0.39 (≈ 1.17 µM)	0.78 (≈ 2.34 µM)	0.78 (≈ 2.34 µM)	6.25 (≈ 18.8 µM)	12.5 (≈ 37.5 µM)	–	–	–	25 (≈ 75 µM)	–	–
CCn1cc(C(=O)O)c(=O)c2cc(Br)c(N3CCNCC3)cc21 [Example 22, 1-ethyl-6-bromo-dihydro-4-oxo-7-(1-piperazinyl)quinoline-3-carboxylic acid hydrochloride]	3.13	0.39	50	0.78	0.78	3.13	0.39	12.5	100	0.39	1.56	1.56	0.78	12.5	1.56	–	0.39	–	50	–	–
CCn1cc(C(=O)O)c(=O)c2cc(Br)c(N3CCN(C)CC3)cc21 [Example 23, 1-ethyl-6-bromo-1,4-dihydro-7-(4-methyl-1-piperazinyl)-4-oxoquinoline-3-carboxylic acid]	1.56 (≈ 3.96 µM)	0.78 (≈ 1.98 µM)	> 100	0.78 (≈ 1.98 µM)	0.78 (≈ 1.98 µM)	3.13 (≈ 7.94 µM)	0.39 (≈ 0.989 µM)	100 (≈ 254 µM)	> 100	0.39 (≈ 0.989 µM)	3.13 (≈ 7.94 µM)	0.78 (≈ 1.98 µM)	0.78 (≈ 1.98 µM)	3.13 (≈ 7.94 µM)	3.13 (≈ 7.94 µM)	–	0.78 (≈ 1.98 µM)	–	> 100	–	–
CCn1cc(C(=O)O)c(=O)c2cc(F)c(N3CCN(C4OC(=O)c5ccccc54)CC3)cc21 (stereo not shown) [Example 28, 1-ethyl-1,4-dihydro-6-fluoro-4-oxo-7-(4-phthalidyl-1-piperazinyl)quinoline-3-carboxylic acid]	0.78 (≈ 1.73 µM)	≤ 0.05	1.56 (≈ 3.46 µM)	0.1 (≈ 0.222 µM)	0.1 (≈ 0.222 µM)	0.2 (≈ 0.443 µM)	≤ 0.05	0.78 (≈ 1.73 µM)	1.56 (≈ 3.46 µM)	≤ 0.05	0.2 (≈ 0.443 µM)	0.2 (≈ 0.443 µM)	–	3.13 (≈ 6.93 µM)	0.1 (≈ 0.222 µM)	–	–	–	1.56 (≈ 3.46 µM)	0.1 (≈ 0.222 µM)	–
